Test results reported in paper PMC12764611 (Nature Communications, 2025).

Molecular target: T1, IGFBP7 (endogenous, HK-2 cells, CETSA) (Homo sapiens, UniProt Q16270)
T1 sequence (Q16270 27-282): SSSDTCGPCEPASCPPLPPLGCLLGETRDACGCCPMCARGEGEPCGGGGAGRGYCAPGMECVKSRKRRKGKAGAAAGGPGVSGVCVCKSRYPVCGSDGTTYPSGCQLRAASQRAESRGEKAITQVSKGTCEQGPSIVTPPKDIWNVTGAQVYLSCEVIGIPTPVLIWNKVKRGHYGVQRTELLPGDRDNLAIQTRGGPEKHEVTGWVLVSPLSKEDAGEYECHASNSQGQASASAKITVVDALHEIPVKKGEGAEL
Experiment: cellular thermal shift assay, immunoblot
Assay type: cell-based
Settings: HK-2 cells with or without LA pretreatment, then lysed and heated

With CN1c2c(nc(N)[nH]c2=O)NC[C@@H]1CNc1ccc(C(=O)N[C@@H](CCC(=O)O)C(=O)O)cc1 [levomefolic acid] the “cellular thermal shift assay, immunoblot” value was “analysis showing the stabilisation of IGFBP7 in vitro, with or without LA treatment”.
